Data: PubChem BioAssay AID248 (DTP/NCI, 2004)
Toxic doses and inconclusive results are not listed. Rule as the data show it: active = T/C of 150% or more; inactive = T/C below 125%.

Test system: L1210 leukemia ip in BDF1 mice, survival T/C
Assay: NCI In Vivo Anticancer Drug Screen. Data for tumor model L1210 Leukemia (intraperitoneal) in B6D2F1 (BDF1) mice
Conditions: endpoint: mean survival time, higher = longer survival
How it was run: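 Ratio derived from survival: compound-dosed mice over vehicle-dosed mice, all bearing a transplantable tumor.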

[1] = dose: 100.0 mg/kg/injection, schedule: Q01DX001 (ip), vehicle: Klucel (hydroxypropylcellulose) (HPC)
[2] = dose: 200.0 mg/kg/injection, schedule: Q01DX001 (ip), vehicle: Klucel (hydroxypropylcellulose) (HPC)
[3] = dose: 100.0 mg/kg/injection, schedule: Q01DX001 (ip), vehicle: other
[4] = dose: 200.0 mg/kg/injection, schedule: Q01DX001 (ip), vehicle: other
[5] = dose: 400.0 mg/kg/injection, schedule: Q01DX001 (ip), vehicle: other
[6] = dose: 100.0 mg/kg/injection, schedule: Q04DX003 (ip), vehicle: saline
[7] = dose: 200.0 mg/kg/injection, schedule: Q04DX003 (ip), vehicle: saline
[8] = dose: 50.0 mg/kg/injection, schedule: Q01DX001 (ip), vehicle: saline
[9] = dose: 100.0 mg/kg/injection, schedule: Q01DX001 (ip), vehicle: saline
[10] = dose: 200.0 mg/kg/injection, schedule: Q01DX001 (ip), vehicle: saline
[11] = dose: 100.0 mg/kg/injection, schedule: Q04DX003 (ip), vehicle: Klucel (hydroxypropylcellulose) (HPC)
[12] = dose: 200.0 mg/kg/injection, schedule: Q04DX003 (ip), vehicle: Klucel (hydroxypropylcellulose) (HPC)

Measured: T/C

CSc1ncnc2c1ncn2C1OC(CCc2ccccc2)C(O)C1O (stereo unspecified)
inactive: [1] 100 % of control | [2] 96 % of control | dose: 400.0 mg/kg/injection, schedule: Q01DX001 (ip), vehicle: Klucel (hydroxypropylcellulose) (HPC) 98 % of control

CC1(C)OC(=O)C(=Cc2cccc3ccc4ccccc4c23)C(=O)O1
inactive: dose: 100.0 mg/kg/injection, schedule: Q01DX001 (ip), vehicle: gum acacia 100 % of control | dose: 200.0 mg/kg/injection, schedule: Q01DX001 (ip), vehicle: gum acacia 97 % of control | dose: 400.0 mg/kg/injection, schedule: Q01DX001 (ip), vehicle: gum acacia 101 % of control

CC(=O)Nc1c(Br)cc2c(c1Br)Cc1cc(N=Cc3ccc4c(c3)OCO4)ccc1-2
inactive: [3] 100 % of control | [4] 94 % of control | [5] 103 % of control

NC(=O)NC(=O)c1nccnc1C(=O)O
inactive: dose: 100.0 mg/kg/injection, schedule: Q01DX001 (ip), vehicle: water 88 % of control | dose: 200.0 mg/kg/injection, schedule: Q01DX001 (ip), vehicle: water 101 % of control | dose: 400.0 mg/kg/injection, schedule: Q01DX001 (ip), vehicle: water 87 % of control

C[N+](C)(C)CC(=O)[O-]
inactive: dose: 100.0 mg/kg/injection, schedule: Q01DX009 (ip), vehicle: saline 108 % of control | [6] 103 % of control | dose: 200.0 mg/kg/injection, schedule: Q01DX009 (ip), vehicle: saline 91 % of control | [7] 94 % of control

CCCCOP(=O)(/C=C/c1ccccc1)OCCCC
inactive: dose: 100.0 mg/kg/injection, schedule: Q04DX002 (ip), vehicle: saline with Tween-80 122 % of control | dose: 200.0 mg/kg/injection, schedule: Q04DX002 (ip), vehicle: saline with Tween-80 91 % of control

COC(=O)c1ccc(N(C)C/C(CNc2nc(NC(C)=O)nc(SCc3ccccc3)c2[N+](=O)[O-])=N/O)cc1
inactive: dose: 100.0 mg/kg/injection, schedule: Q01DX001 (ip), vehicle: saline with Tween-80 92 % of control | dose: 200.0 mg/kg/injection, schedule: Q01DX001 (ip), vehicle: saline with Tween-80 86 % of control | dose: 400.0 mg/kg/injection, schedule: Q01DX001 (ip), vehicle: saline with Tween-80 96 % of control

O=C(O)C1CC=CCC1c1c2ccc(=O)cc-2oc2cc(O)ccc12 (stereo unspecified)
inactive: [6] 98 % of control | [7] 94 % of control | dose: 400.0 mg/kg/injection, schedule: Q04DX003 (ip), vehicle: saline 91 % of control

CCCCCCCCCCCCCC(=O)[O][Sn]([CH2]CCC)([CH2]CCC)[O]C(=O)CCCCCCCCCCCCC
inactive: dose: 0.78 mg/kg/injection, schedule: Q04DX003 (ip), vehicle: other 95 % of control | dose: 1.56 mg/kg/injection, schedule: Q04DX003 (ip), vehicle: other 98 % of control | dose: 3.13 mg/kg/injection, schedule: Q04DX003 (ip), vehicle: other 96 % of control | dose: 6.25 mg/kg/injection, schedule: Q04DX003 (ip), vehicle: other 109 % of control | dose: 12.5 mg/kg/injection, schedule: Q04DX003 (ip), vehicle: other 101 % of control

COc1cccc(CCN)c1
inactive: [8] 116 % of control | [9] 110 % of control | [10] 118 % of control

Cc1n[nH]c(=S)[nH]c1=O
inactive: [8] 100 % of control | [9] 100 % of control | [10] 100 % of control | dose: 400.0 mg/kg/injection, schedule: Q01DX001 (ip), vehicle: saline 94 % of control

C[Si](C)(C)Oc1c(Cl)cc(Cl)cc1Cl
inactive: dose: 100.0 mg/kg/injection, schedule: Q04DX003 (ip), vehicle: saline with Tween-80 102 % of control | dose: 200.0 mg/kg/injection, schedule: Q04DX003 (ip), vehicle: saline with Tween-80 98 % of control | dose: 400.0 mg/kg/injection, schedule: Q04DX003 (ip), vehicle: saline with Tween-80 91 % of control

O=C1CC2CC1C1C(=O)OC(=O)C21 (stereo unspecified)
inactive: dose: 75.0 mg/kg/injection, schedule: Q01DX001 (ip), vehicle: acetone 91 % of control | dose: 150.0 mg/kg/injection, schedule: Q01DX001 (ip), vehicle: acetone 104 % of control | dose: 300.0 mg/kg/injection, schedule: Q01DX001 (ip), vehicle: acetone 98 % of control

CC(C)(C)NSc1nc2ccccc2s1
inactive: dose: 50.0 mg/kg/injection, schedule: Q01DX009 (ip), vehicle: saline with Tween-80 97 % of control | dose: 100.0 mg/kg/injection, schedule: Q01DX009 (ip), vehicle: saline with Tween-80 94 % of control | dose: 200.0 mg/kg/injection, schedule: Q01DX009 (ip), vehicle: saline with Tween-80 98 % of control

Cc1ccc(NCC(O)CN2CCN(CC(O)CNc3ccc(C)cc3)CC2)cc1 (stereo unspecified)
inactive: [3] 106 % of control | [11] 88 % of control | [4] 95 % of control | [12] 94 % of control | [5] 95 % of control | dose: 400.0 mg/kg/injection, schedule: Q04DX003 (ip), vehicle: Klucel (hydroxypropylcellulose) (HPC) 91 % of control

COC(=O)C1CC2c3[nH]c4ccccc4c3CCN2C1 (stereo unspecified)
inactive: [11] 94 % of control | [12] 92 % of control

C#CCOCC(O)C[As](=O)(O)c1ccc(Cl)cc1 (stereo unspecified)
inactive: dose: 6.25 mg/kg/injection, schedule: Q01DX001 (ip), vehicle: saline with Tween-80 101 % of control | dose: 12.5 mg/kg/injection, schedule: Q01DX001 (ip), vehicle: saline with Tween-80 106 % of control

CC(=O)OCC1OC([S][Sb]([CH3])[CH3])C(OC(C)=O)C(OC(C)=O)C1OC(C)=O (stereo unspecified)
inactive: dose: 12.5 mg/kg/injection, schedule: Q01DX009 (ip), vehicle: Klucel (hydroxypropylcellulose) (HPC) 96 % of control | dose: 25.0 mg/kg/injection, schedule: Q01DX009 (ip), vehicle: Klucel (hydroxypropylcellulose) (HPC) 102 % of control | dose: 50.0 mg/kg/injection, schedule: Q01DX009 (ip), vehicle: Klucel (hydroxypropylcellulose) (HPC) 93 % of control

CCC(=O)n1c(=O)n(C2CCN(CCCS(=O)(=O)c3ccccc3)CC2)c2ccccc21
inactive: dose: 50.0 mg/kg/injection, schedule: Q01DX001 (ip), vehicle: Klucel (hydroxypropylcellulose) (HPC) 95 % of control | [1] 95 % of control | [2] 100 % of control
